In patent EP4810052A2, “HCRHR2 SELECTIVE POLYPEPTIDES” (Gubra A/S, priority 2023, dated 2026):
Where two headings read alike, the source gives them in different places. Marks after values point to notes of the source that are not given here. Starred links: 1 amine or outer side, 2 acyl side, 3 side chain; linkers in the order of their positions; H or OH if unused. Non-standard residues stand in square brackets, D forms with d. Residues, ends and D or L forms follow the SMILES beside them. Groups on a side chain read outwards from the residue. *: point of attachment. C20 diacid = O=C(O)CCCCCCCCCCCCCCCCCCC(=O)*; γGlu = O=C(O)[C@H](CCC(=O)[*:2])N[*:1]; NMeI = CC[C@H](C)[C@H](NC)C(=O)O; Nle = CCCC[C@H](N)C(=O)O; AEEA = NCCOCCOCC(=O)O; Aib = CC(C)(N)C(=O)O

Tests used:
[1] = Effect on acute food intake in mice; type: in vivo; conditions: single subcutaneous dose
Description: Male NMRI mice were obtained from JanVier (JanVier Labs, France) at 5 weeks of age. The animals were group-housed 4 mice pr. cage under a 12/12 h dark-light cycle, light off at 1 PM. Room temperature was controlled to 22°C ± 1°C, with 60 % ± 20% humidity. Animals had ad libitum access to regular rodent chow (Altromin 1324, Brogaarden, Denmark) and tap water.
Animals were transferred 5-7 days before the start of the study to a real-time food intake monitoring system, HM-2 system (MBRose, Denmark) to allow acclimatization to experimental conditions. As the animals were uniquely identified with microchips, each individual animal was identified by its microchip upon entry and exit from the food channel. Randomization of the mice for each study group (n=7-8) was based on body weight measured the day before the start of the study. A vehicle-treated group was included in each experiment. Six hours before the start of the dark phase, animals were fasted. One hour before the dark phase, animals were dosed once subcutaneously with test peptide. Food intake was reported hourly for a period of 72 hours. The percentage of food intake reduction was normalized to average food intake from the vehicle group. Statistical significance was evaluated using One-way analysis of variance with Dunnett's multiple comparison test. P < 0.05 was considered statistically significant.
Selected compounds were tested according to the general procedure on acute food intake in mice to determine the effect of a single subcutaneous dose on food intake in mice over 3 days.

[2] = Thioflavin T fibril formation assay of purified peptides; type: physicochemical; parameters: key: Amyloid fibril formation detected by an increase in ThT fluorescence was denoted with "Yes"; samples without increasing ThT fluorescence hence not forming amyloid fibrils were denoted "No"
Procedure, shortened: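 Fibril formation read as rising ThT emission at 480 nm (450 nm excitation), 4 µM ThT, over 96 h at 40°C with alternating 5-min rest and 700 rpm shaking cycles, in triplicate. Samples were 200 µM compound in 50 mM phosphate at various pH values, or co-formulated at 200 µM in semaglutide product at pH 7.4.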

PK in rats = type: in vivo; parameters: T½ / MRT: unit not given here; conditions: for half-life: read-out: T½ (converted)
Description: Lean male Sprague Dawley rats (RJHan:SD) were obtained from JanVier (JanVier Labs, France) at 7 weeks of age. The animals were pair housed until randomization under a 12/12 h dark-light cycle, light off at 3 PM. Room temperature was controlled to 22°C ± 1°C, with 60 % ± 20% humidity.
Animals had ad libitum access to regular rodent chow (Altromin 1324, Brogaarden, Denmark) and tap water.
After 2 weeks of acclimatization, the animals were single housed and randomized into treatment groups (n = 3 per group) based on body weight on study day -3. On study day 1, animals were dosed 50 nmol/kg IV and SC in combination of two peptides. Plasma samples were collected for PK analysis at times 0.17, 1, 3, 6, 24, 30, 48, 72 and 96 hours post dosing. Plasma samples were analyzed using LC-MSMS and PK parameters were estimated by Non-Compartmental Analysis (NCA).

hCRHR2 = molecular target: T1, hCRHR2 (Homo sapiens, UniProt Q13324); assay: HTRF cAMP assay, determination of hCRHR2 potency (peptide libraries 5 conc., purified peptides 11 conc.); type: cell-based
T1 sequence (Q13324 1-411): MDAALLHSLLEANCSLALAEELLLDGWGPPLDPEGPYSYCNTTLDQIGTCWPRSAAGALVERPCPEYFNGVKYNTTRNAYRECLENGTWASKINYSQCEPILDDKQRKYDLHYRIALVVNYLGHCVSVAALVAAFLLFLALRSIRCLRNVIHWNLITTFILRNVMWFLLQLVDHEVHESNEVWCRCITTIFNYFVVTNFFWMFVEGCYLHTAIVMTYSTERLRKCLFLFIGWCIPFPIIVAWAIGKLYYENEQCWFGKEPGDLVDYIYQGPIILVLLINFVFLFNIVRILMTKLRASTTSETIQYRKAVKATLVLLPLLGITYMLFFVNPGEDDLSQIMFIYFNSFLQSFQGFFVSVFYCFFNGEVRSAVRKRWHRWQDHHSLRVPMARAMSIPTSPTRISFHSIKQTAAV
Procedure, shortened: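 Read-out was HTRF competitive cAMP detection (d2-labelled cAMP, cryptate-labelled antibody) in suspended, freshly thawed CHO-K1 cells stably carrying human CRHR2.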

[3] = male, Sprague Dawley (RJHan:SD), in vivo, iv, Rat, 50 nmol/kg i.v.
[4] = male, Sprague Dawley (RJHan:SD), in vivo, sc, Rat, 50 nmol/kg s.c.
[5] = Table 5, purified peptides, read-out: hCRHR2 EC50

CCCC[C@H](NC(=O)[C@@H](NC(=O)[C@H](CCC(=O)O)NC(=O)C(C)(C)NC(=O)[C@H](CC(N)=O)NC(=O)[C@@H](NC(=O)[C@H](CCCCNC(=O)COCCOCCNC(=O)COCCOCCNC(=O)CC[C@H](NC(=O)CC[C@H](NC(=O)CCCCCCCCCCCCCCCCCCC(=O)O)C(=O)O)C(=O)O)NC(=O)[C@H](C)NC(=O)[C@H](CCC(N)=O)NC(=O)[C@H](CCC(=O)O)NC(=O)[C@H](CCCNC(=N)N)NC(=O)[C@H](C)NC(=O)[C@H](C)NC(=O)[C@H](CCCNC(=N)N)NC(=O)[C@H](C)NC(=O)[C@H](CCCNC(=N)N)NC(=O)[C@H](C)NC(=O)[C@H](CCC(N)=O)NC(=O)[C@H](CO)NC(=O)[C@H](CC(C)C)NC(=O)[C@H](CC(C)C)NC(=O)[C@@H](NC(=O)[C@H](CCC(N)=O)NC(=O)[C@H](CC(C)C)NC(=O)[C@H](CC(C)C)NC(=O)CNC(=O)[C@@H](NC(=O)[C@@H]1CCCN1C(=O)[C@@H](NC(=O)[C@H](CC(=O)O)NC(=O)[C@H](CC(C)C)NC(=O)[C@H](CO)NC(=O)[C@H](CC(C)C)NC(=O)[C@@H](NC(=O)[C@@H](NC)[C@@H](C)CC)C(C)C)C(C)C)[C@@H](C)CC)[C@@H](C)CC)[C@@H](C)O)[C@@H](C)CC)C(=O)N[C@@H](C)C(=O)N[C@@H](CCC(=O)O)C(=O)N[C@H](C(N)=O)C(C)C [SEQ ID NO: 215] (H-[NMeI]VLSLDVPIGLLQILLSQARARAAREQAK([AEEA-AEEA-γGlu-γGlu-C20 diacid])TN[Aib]EI[Nle]AEV-NH2)
% FI compared to vehicle, 24 h post-dosing ([1]; 30 nmol/kg): 38.67*** % | % FI compared to vehicle, 24 h post-dosing ([1]; 100 nmol/kg): 20.26*** % | % FI compared to vehicle, 24 h post-dosing ([1]; 300 nmol/kg): 10.31*** % | Amyloid fibril formation + semaglutide (Ozempic®), pH 7.4 ([2]; 200 µM compound dissolved in semaglutide drug product, pH 7.4, listed as None = drug product alone): No | Amyloid fibril formation pH 7.0 ([2]; 200 µM in 50 mM phosphate buffer, pH 7.0): No | Amyloid fibril formation pH 7.5 ([2]; 200 µM in 50 mM phosphate buffer, pH 7.5): No | Amyloid fibril formation pH 8.0 ([2]; 200 µM in 50 mM phosphate buffer, pH 8.0): No | Fibrillation (pH 7.5) ([2]; pH 7.5): No | MRT (PK in rats; Rat): 6.7 | T½ (PK in rats; Rat): 5.7 | clearance (PK in rats; [3]): 0.2 mL/min/kg | half-life (PK in rats; [3]): 342 min | Cmax (PK in rats; [4]): 42 nM | Tmax (PK in rats; [4]): 24 h | half-life (PK in rats; [4]): 366 min | bioavailability (PK in rats; male, Sprague Dawley, rat, in vivo, sc): 28% | Solubility pH 6.5 (mg/ml) (pH 6.5): 19.6 mg/ml | Solubility pH 7.0 (mg/mL) (pH 7): 20.6 mg/mL | Solubility pH 7.5 (mg/mL) (pH 7.5): 17.7 mg/mL | Solubility pH 7.5 + phenol (mg/mL) (pH 7.5): 18.0 mg/mL | Solubility pH 7.5, target conc. =10 mg/mL (measured mg/mL) (pH 7.5): 12 mg/mL | EC50 (hCRHR2; Table 4, library peptides having X^38 = Nle, read-out: hCRHR2 pEC50 (converted)): 0.0251 nM | Selectivity ratio (hCRHR1/ hCRHR2) (hCRHR2; Table 5): >5747 | EC50 (hCRHR2; [5]): 0.87 nM

CCCC[C@H](NC(=O)[C@@H](NC(=O)[C@H](CCC(=O)O)NC(=O)[C@H](C)NC(=O)[C@H](CC(N)=O)NC(=O)[C@H](CCC(=O)O)NC(=O)[C@H](CCCCNC(=O)COCCOCCNC(=O)COCCOCCNC(=O)CC[C@H](NC(=O)CC[C@H](NC(=O)CCCCCCCCCCCCCCCCCCC(=O)O)C(=O)O)C(=O)O)NC(=O)[C@H](C)NC(=O)[C@H](CCC(N)=O)NC(=O)[C@H](CCC(=O)O)NC(=O)[C@H](CCCNC(=N)N)NC(=O)[C@H](C)NC(=O)[C@H](C)NC(=O)[C@H](CCCNC(=N)N)NC(=O)[C@H](C)NC(=O)[C@H](CCCNC(=N)N)NC(=O)[C@H](C)NC(=O)[C@H](CCC(N)=O)NC(=O)[C@H](CO)NC(=O)[C@H](CC(C)C)NC(=O)[C@H](CC(C)C)NC(=O)[C@@H](NC(=O)[C@H](CCC(N)=O)NC(=O)[C@H](CC(C)C)NC(=O)[C@H](CC(C)C)NC(=O)CNC(=O)[C@@H](NC(=O)[C@@H]1CCCN1C(=O)[C@@H](NC(=O)[C@H](CC(=O)O)NC(=O)[C@H](CC(C)C)NC(=O)[C@H](CO)NC(=O)[C@H](CC(C)C)NC(=O)[C@@H](NC(=O)[C@@H](NC)[C@@H](C)CC)C(C)C)C(C)C)[C@@H](C)CC)[C@@H](C)CC)[C@@H](C)CC)C(=O)N[C@@H](C)C(=O)N[C@@H](CCC(=O)O)C(=O)N[C@H](C(N)=O)C(C)C [compound 101] (H-[NMeI]VLSLDVPIGLLQILLSQARARAAREQAK([AEEA-AEEA-γGlu-γGlu-C20 diacid])ENAEI[Nle]AEV-NH2)
% FI compared to vehicle, 24 h post-dosing ([1]; 30 nmol/kg): 30.85*** % | % FI compared to vehicle, 24 h post-dosing ([1]; 100 nmol/kg): 21.44*** % | % FI compared to vehicle, 24 h post-dosing ([1]; 300 nmol/kg): 8.09*** % | Fibrillation (pH 7.5) ([2]; pH 7.5): No | MRT (PK in rats; Rat): 6.8 | T½ (PK in rats; Rat): 6.5 | Solubility pH 7.5, target conc. =10 mg/mL (measured mg/mL) (pH 7.5): 11 mg/mL | Selectivity ratio (hCRHR1/ hCRHR2) (hCRHR2; Table 5): 5435 | EC50 (hCRHR2; [5]): 0.92 nM

CC[C@H](C)[C@H](NC)C(=O)N[C@H](C(=O)N[C@@H](CC(C)C)C(=O)N[C@@H](CO)C(=O)N[C@@H](CC(C)C)C(=O)N[C@@H](CC(=O)O)C(=O)N[C@H](C(=O)N1CCC[C@H]1C(=O)N[C@H](C(=O)NCC(=O)N[C@@H](CC(C)C)C(=O)N[C@@H](CC(C)C)C(=O)N[C@@H](CCC(N)=O)C(=O)N[C@H](C(=O)N[C@@H](CC(C)C)C(=O)N[C@@H](CC(C)C)C(=O)N[C@@H](CCC(=O)O)C(=O)N[C@@H](CCC(N)=O)C(=O)N[C@@H](C)C(=O)N[C@@H](CCCNC(=N)N)C(=O)N[C@@H](C)C(=O)N[C@@H](CCCNC(=N)N)C(=O)N[C@@H](C)C(=O)N[C@@H](C)C(=O)N[C@@H](CCCNC(=N)N)C(=O)N[C@@H](CCC(=O)O)C(=O)N[C@@H](CCC(N)=O)C(=O)N[C@@H](C)C(=O)N[C@@H](CCCCNC(=O)COCCOCCNC(=O)COCCOCCNC(=O)CC[C@H](NC(=O)CC[C@H](NC(=O)CCCCCCCCCCCCCCCCCCC(=O)O)C(=O)O)C(=O)O)C(=O)N[C@H](C(=O)N[C@@H](CC(N)=O)C(=O)N[C@@H](C)C(=O)N[C@@H](CCC(=O)O)C(=O)N[C@H](C(=O)N[C@@H](CC(C)C)C(=O)N[C@@H](C)C(=O)N[C@@H](CCC(=O)O)C(=O)N[C@H](C(N)=O)C(C)C)[C@@H](C)CC)[C@@H](C)O)[C@@H](C)CC)[C@@H](C)CC)C(C)C)C(C)C [SEQ ID NO: 5] (H-[NMeI]VLSLDVPIGLLQILLEQARARAAREQAK([AEEA-AEEA-γGlu-γGlu-C20 diacid])TNAEILAEV-NH2)
% FI compared to vehicle, 24 h post-dosing ([1]; 30 nmol/kg): 45.67*** % | % FI compared to vehicle, 24 h post-dosing ([1]; 100 nmol/kg): 18.68*** % | % FI compared to vehicle, 24 h post-dosing ([1]; 300 nmol/kg): 15.93*** % | Fibrillation (pH 7.5) ([2]; pH 7.5, ThT assay): No | MRT (PK in rats; Rat): 7.9 | T½ (PK in rats; Rat): 8.6 | Solubility pH 7.5, target conc. =10 mg/mL (measured mg/mL) (pH 7.5): 11 mg/mL | Selectivity ratio (hCRHR1/ hCRHR2) (hCRHR2; hCRHR1-EC50/hCRHR2-EC50): >4167 | EC50 (hCRHR2; purified peptides, CHO-K1 cells stably expressing hCRHR2, cAMP HTRF, read-out: hCRHR2 EC50): 1.2 nM
